Data reported in patent US9096544B2, “Therapeutic compounds” (Wayne State University, priority 2009, dated 2015).

What was measured:
Type in all cases: cell-based
[1] = system: TF(v-SRC) cells; assay: Annexin V-FITC binding by flow cytometry, TF(v-SRC) cells; settings: 1 μM, varying times
Procedure: FIG. 3 illustrates the induction of apoptosis and cell death as assessed using Annexin V-FITC binding together with propidium iodide (PI) staining. FFMA-AML and TF(vSRC) cells were exposed to 1 μM 3-Cl-AHPC or compound 16. A) Apoptosis in FFMA-AML and TF(vSRC) cells following 24 and 48 h ARR exposure, respectively. The plots show the distribution of classes of fluorescence intensity versus cell number. The bottom left quadrant represents live cells (both annexin V-FITC and PI negative); the bottom right quadrant represents early apoptotic cells (annexin V-FITC positive but PI negative); and the top right quadrant represents late apoptotic cells (both annexin V-FITC and PI positive). B) Percentage of early apopotic Annexin V-positive cells at the indicated times. […] (p values of <0.05, <0.01 and <0.001 respectively, as determined by the t test).
Apoptosis of cells was determined by (1) acridine orange and ethidium bromide-staining to assess cells with nuclear fragmentation and chromatin condensation as previously described (Farhana L. et al., Cancer Res. 2006; 65:4909-4917) and (2) flow cytometry assessing Annexin V-FITC binding together with propidium iodide staining (Annexin V-FITC apoptosis Detection kit 1, BD Biosciences, San Diego, Calif.). Data acquisition was done on a FACS Calibur flow cytometer (BD) and analyzed with CellQuest software. […]

[2] = system: COLO357 cells; assay: Test I: apoptosis of COLO357 pancreatic cancer cells (Annexin V-FITC/PI); settings: 1 μM, 48 h
Procedure: (§1) Pancreatic cancer cell lines (COLO357, PANC-1, Capan-2, AsPc-1 cells and MiaPaCa-2 cells obtained from American Type Culture Collection; ATCC, Rockville, Md.) were treated with 1 μM 3-Cl-AHPC and compound 16 for various times. Apoptosis in cells were analyzed by flow cytometry using Annexin V-FITC binding together with propidium iodide (PI) staining (Annexin V-FITC apoptosis Detection Kit 1, BD Biosciences, San Diego, Calif.). Data acquisition was done on a FACS Calibur flow cytometer (BD) and analyzed with CellQuest software (BD Biosciences). 3-Cl-AHPC and compound 16 mediated inhibition of cell growth were determined by 3-(4,5-dimethylthiazol-2-yl)-2,5-diphenyltetrazolium bromide (MTT) assay. The cells were seeded on 96-well plates at a density of 4×10^4 cells/well in a volume of 200 μl culture medium. 1 μM AHP3 and 3-Cl-AHPC in DMSO (final concentration 0.1%) were added to the cells for various times. […] After discarding the medium, MTT precipitates were solubilized with 200 μl DMSO and the plates read on a BioTeK Synergy HT (BioTeK Instrument Inc., Vermont) at an absorbance 570 nm. […] The spheroids were stained with acridine orange/ethidium bromide staining and immediately visualized and photographed with fluorescence microscope (OLYMPUS CKX41). […] Then spheroids were visualized and photographed with a fluorescence microscope.

[3] = system: AsPc-1 cells; assay: Test I: apoptosis of AsPc-1 pancreatic cancer cells (Annexin V-FITC/PI); settings: 1 μM, 72 h
Procedure: as §1

[4] = system: MiaPaCa-2 cells; assay: Test I: apoptosis of MiaPaCa-2 pancreatic cancer cells (Annexin V-FITC/PI); settings: 1 μM, 72 h
Procedure: as §1

[5] = system: MiaPaCa-2 cells; assay: Test I: growth inhibition of MiaPaCa-2 cells (MTT); settings: 1 μM
Procedure: as §1

[6] = system: pancreatic cancer stem cell spheroids; assay: Test J: disaggregation of and apoptosis in pancreatic cancer stem cell spheroids; settings: for effect on formed spheroids: added to pancreatic cancer stem cell spheroids; for exposure resulting in disaggregation of the spheroid and induction of apoptosis: as little as
Procedure: Apoptosis and Growth Inhibition of Pancreatic Cancer Stem Cells (Obtained from PANC-1, Capan-2 and MiaPaCa-2 Cells) by Compound 16 and 3-Cl-AHPC.
The sorted CD44^+/CD24^+ cells were suspended in serum-free stem cell medium containing DMEM/F12 (1:1) supplemented with B27 (Life Technologies, Gaithersburg, Md.), 20 ng/ml EGF (Biomol International, Plymouth, Pa.)), 20 ng/ml fibroblast growth factor (Biomol International, Plymouth, Pa.), and 100 μg/ml gentamycin. Approximately 150-200 cells per well were seeded in an ultra low-attachment 96-well plate (Corning Inc, Lowell, Mass.). 3-Cl-AHPC and compound 16 were added the day after cells were plated or after 7 days of spheroid formation. Spheriods were photographed and measured utilizing a Olympus microscope (OLYMPUS CKX41) and Olympus microscope digital camera with DP2-BSW software (Olympus soft imaging solutions GmbH, Germany).
DMSO (vehicle) and 3-Cl-AHPC treated spheroids were centrifuged at 1000 rpm for 5 minutes, washed in PBS, 22% bovine serum albumin added to the spheroids pellet, 95% ethanol placed on the spheroids pellet and the pellet allowed to harden for 30 minutes. Neutral buffered formalin (10%) was added to fix the cell pellet for at least 2 h and the spheroids were then placed in a labeled plastic tissue embedding cassette containing 10% neutral buffered formalin overnight. The spheroids were processed in a Sakura Tissue-Tek Processor for overnight dehydration in graded ethanol, clearing in xylene and infiltration with paraffin. The spheroids were placed in a 4 μm embedding mold for final paraffin embedding.
The TUNEL assay was performed using the In Situ Cell Death Detection kit, POD (Roche-Applied-Science, Mannheim, Germany) according to the manufacturer's instructions.
The paraffin embedding spheroids were deparaffinized and rehydrated, then tissues sections were incubated with proteinase K solution (10-20 μg/ml) for 30 min. Tissues were then rinsed twice in PBS and reacted with 50 μl of the TUNEL reaction mixture at room temperature for 60 min in a dark, humidified chamber. Sections were again rinsed in PBS and incubated for 30 min with 50 μl of the Converter-POD (RocheApplied-Science) and followed by 3-amino-9-ethylcarbazole (AEC). Sections were then counterstained with hematoxylin. As negative controls, corresponding sections were treated in the same way without terminal, deoxynucleotidyl transferase.

Row | Compound | annexin V-FITC-positive cells [1] | cells in which induction of apoptosis was noted [2] | induction of apoptosis [3] | induction of apoptosis [4] | inhibition of growth [5] | effect on formed spheroids [6] | exposure resulting in disaggregation of the spheroid and induction of apoptosis [6]
1 | O=C(O)C=Cc1ccc(-c2ccc(O)c(C34CC5CC(CC(C5)C3)C4)c2)c(Cl)c1 [Compound 3-Cl-AHPC, 4-[3-(1-adamantyl)-4-hydroxyphenyl]-3-chlorocinnamic acid, reference compound] | progressive increase in annexin V-FITC-positive cells with time | 80% | Apoptosis was also noted | Apoptosis was also noted | significant inhibition of growth | resulted in their disaggregation and the induction of apoptosis in the cells comprising the spheroid | 500 nM
2 | O=C(O)/C=C/c1cnc(-c2ccc(O)c(C34CC5CC(CC(C5)C3)C4)c2)nc1 [Compound 16, (E)-3-[2-(3-(1-Adamantyl)-4-hydroxyphenyl)-5-pyrimidinyl]-2-propenoic acid] | progressive increase in annexin V-FITC-positive cells with time | 80% | Apoptosis was also noted | Apoptosis was also noted | significant inhibition of growth | resulted in their disaggregation and the induction of apoptosis in the cells comprising the spheroid | 500 nM
